ChEMBL document CHEMBL5055643, “Sophoraflavanone G Resensitizes ABCG2-Overexpressing Multidrug-Resistant Non-Small-Cell Lung Cancer Cells to Chemotherapeutic Drugs” (J Nat Prod, 2021)
The source made the active and inactive calls. The calls are words filed in the database; no cut-off is given here.

How the values were obtained:
[1] = test system: HEK293; assay: Chemo-sensitizing activity against human HEK293 cells assessed as reversal fold at 5 uM measured after 72 hrs in presence of SN-38 by CCK8 assay relative to control; type: functional
[2] = test system: A549; assay: Chemo-sensitizing activity against human A549 cells assessed as reversal fold at 5 uM measured after 72 hrs in presence of mitoxantrone by CCK8 assay relative to control; type: functional
[3] = test system: HEK293; assay: Chemo-sensitizing activity against human HEK293 cells assessed as reversal fold at 2 uM measured after 72 hrs in presence of paclitaxel by CCK8 assay relative to control; type: functional
[4] = Cytotoxicity against human NCI-H460 cells assessed as cell viability at 1 to 5 uM measured after 72 hrs by CCK8 assay; type: cell-based; conditions: dose 1-5 µM, read-out: Activity
[5] = test system: NCI-H460; assay: Chemo-sensitizing activity against mitoxantrone-selected ABCG2-overexpressing human NCI-H460/MX20 cells assessed as reversal fold at 1 uM measured after 72 hrs in presence of topotecan by CCK8 assay relative to control; type: functional
[6] = test system: KB 3-1; assay: Chemo-sensitizing activity against human KB 3-1 cells assessed as reversal fold at 1 uM measured after 72 hrs in presence of colchicine by CCK8 assay relative to control; type: functional
[7] = test system: A549; assay: Chemo-sensitizing activity against human A549 cells assessed as reversal fold at 5 uM measured after 72 hrs in presence of topotecan by CCK8 assay relative to control; type: functional
[8] = test system: HEK293; assay: Chemo-sensitizing activity against human HEK293 cells assessed as reversal fold at 2 uM measured after 72 hrs in presence of SN-38 by CCK8 assay relative to control; type: functional
[9] = test system: HEK293; assay: Chemo-sensitizing activity against ABCB1-overexpressing human HEK293/MDR19 cells assessed as reversal fold at 1 uM measured after 72 hrs in presence of paclitaxel by CCK8 assay relative to control; type: functional
[10] = test system: NCI-H460; assay: Chemo-sensitizing activity against human NCI-H460 cells assessed as reversal fold at 2 uM measured after 72 hrs in presence of SN-38 by CCK8 assay relative to control; type: functional
[11] = test system: NCI-H460; assay: Effect on ABCG2 protein expression in mitoxantrone-selected ABCG2-overexpressing human NCI-H460/MX20 cells at 1 to 5 uM incubated for 72 hrs by immunoblot analysis; type: functional, cell-based; conditions: dose 1-5 µM
[12] = test system: OVCAR-8; assay: Chemo-sensitizing activity against human OVCAR-8 cells assessed as reversal fold at 2 uM measured after 72 hrs in presence of paclitaxel by CCK8 assay relative to control; type: functional
[13] = test system: NCI-H460; assay: Chemo-sensitizing activity against human NCI-H460 cells assessed as reversal fold at 5 uM measured after 72 hrs in presence of SN-38 by CCK8 assay relative to control; type: functional
[14] = test system: HEK293; assay: Chemo-sensitizing activity against human HEK293 cells assessed as reversal fold at 1 uM measured after 72 hrs in presence of colchicine by CCK8 assay relative to control; type: functional
[15] = test system: KB-V1; assay: Chemo-sensitizing activity against ABCB1-overexpressing human KB-V1 cells assessed as reversal fold at 1 uM measured after 72 hrs in presence of vincristine by CCK8 assay relative to control; type: functional
[16] = test system: NCI-H460; assay: Chemo-sensitizing activity against mitoxantrone-selected ABCG2-overexpressing human NCI-H460/MX20 cells assessed as reversal fold at 5 uM measured after 72 hrs in presence of SN-38 by CCK8 assay relative to control; type: functional
[17] = test system: OVCAR-8; assay: Chemo-sensitizing activity against human OVCAR-8 cells assessed as reversal fold at 2 uM measured after 72 hrs in presence of colchicine by CCK8 assay relative to control; type: functional
[18] = test system: HEK293; assay: Chemo-sensitizing activity against human HEK293 cells assessed as reversal fold at 1 uM measured after 72 hrs in presence of topotecan by CCK8 assay relative to control; type: functional
[19] = test system: HEK293; assay: Chemo-sensitizing activity against human HEK293 cells assessed as reversal fold at 2 uM measured after 72 hrs in presence of topotecan by CCK8 assay relative to control; type: functional
[20] = test system: HEK293; assay: Chemo-sensitizing activity against human HEK293 cells assessed as reversal fold at 2 uM measured after 72 hrs in presence of vincristine by CCK8 assay relative to control; type: functional
[21] = test system: OVCAR-8; assay: Chemo-sensitizing activity against human OVCAR-8 cells assessed as reversal fold at 2 uM measured after 72 hrs in presence of vincristine by CCK8 assay relative to control; type: functional
[22] = test system: HEK293; assay: Chemo-sensitizing activity against human HEK293 cells assessed as reversal fold at 5 uM measured after 72 hrs in presence of colchicine by CCK8 assay relative to control; type: functional
[23] = test system: NCI/ADR-RES; assay: Chemo-sensitizing activity against ABCB1-overexpressing human NCI/ADR-RES cells assessed as reversal fold at 5 uM measured after 72 hrs in presence of paclitaxel by CCK8 assay relative to control; type: functional
[24] = test system: NCI/ADR-RES; assay: Chemo-sensitizing activity against ABCB1-overexpressing human NCI/ADR-RES cells assessed as reversal fold at 5 uM measured after 72 hrs in presence of colchicine by CCK8 assay relative to control; type: functional
[25] = test system: HEK293; assay: Chemo-sensitizing activity against human HEK293 cells assessed as reversal fold at 2 uM measured after 72 hrs in presence of mitoxatrone by CCK8 assay relative to control; type: functional
[26] = test system: A549; assay: Chemo-sensitizing activity against becatecarin-selected ABCG2-overexpressing human A549/Bec150 cells assessed as reversal fold at 1 uM measured after 72 hrs in presence of SN-38 by CCK8 assay relative to control; type: functional
[27] = test system: HEK293; assay: Chemo-sensitizing activity against ABCB1-overexpressing human HEK293/MDR19 cells assessed as reversal fold at 1 uM measured after 72 hrs in presence of vincristine by CCK8 assay relative to control; type: functional
[28] = test system: A549; assay: Chemo-sensitizing activity against human A549 cells assessed as reversal fold at 1 uM measured after 72 hrs in presence of SN-38 by CCK8 assay relative to control; type: functional
[29] = test system: KB-V1; assay: Chemo-sensitizing activity against ABCB1-oveexpressing human KB-V1 cells assessed as reversal fold at 5 uM measured after 72 hrs in presence of colchicine by CCK8 assay relative to control; type: functional
[30] = test system: A549; assay: Chemo-sensitizing activity against human A549 cells assessed as reversal fold at 2 uM measured after 72 hrs in presence of mitoxantrone by CCK8 assay relative to control; type: functional
[31] = test system: NCI/ADR-RES; assay: Chemo-sensitizing activity against ABCB1-overexpressing human NCI/ADR-RES cells assessed as reversal fold at 1 uM measured after 72 hrs in presence of colchicine by CCK8 assay relative to control; type: functional

C=C(C)[C@H](CC=C(C)C)Cc1c(O)cc(O)c2c1O[C@H](c1ccc(O)cc1O)CC2=O [SOPHORAFLAVANONE G]
fold change (FC) [1]: 1
fold change (FC) [2]: 1.8
fold change (FC) [3]: 1
viability at 72 h, 5 µM [4]: > 90%
fold change (FC) [5]: 4.1
fold change (FC) [6]: 1
fold change (FC) [7]: 1.4
fold change (FC) [8]: 0.9
fold change (FC) [9]: 0.8
fold change (FC) [10]: 1.7
Activity [11]: inactive
fold change (FC) [12]: 1
fold change (FC) [13]: 2.8
fold change (FC) [14]: 1
fold change (FC) [15]: 1
fold change (FC) [16]: 10.1
fold change (FC) [17]: 1
fold change (FC) [18]: 0.9
fold change (FC) [19]: 0.9
fold change (FC) [20]: 0.6
fold change (FC) [21]: 1
fold change (FC) [22]: 1
fold change (FC) [23]: 1.4
fold change (FC) [24]: 0.7
fold change (FC) [25]: 0.9
fold change (FC) [26]: 1.7
fold change (FC) [27]: 0.7
fold change (FC) [28]: 1
fold change (FC) [29]: 0.8
fold change (FC) [30]: 1.6
fold change (FC) [31]: 0.9
